From patent EP4786466A1, “QUINAZOLINE DERIVATIVE, SALT THEREOF, AND PHARMACEUTICAL COMPOSITION COMPRISING SAME AS ACTIVE INGREDIENT” (Korea Research Institute of Chemical Technology, priority 2023, dated 2025) come the findings set out here.

Data set [1] deals with pENSA. As to the kind of experiment: pENSA level by immunofluorescence (described method: in vitro kinase analysis with GST-tag-MASTL and His-tag-ENSA). The settings on record: for pENSA (%) Immunofluor ecense (1 µM): compound 1 µM; for IC50: read-out: IC50(nM) pENSA. The format is cell-based. An outline of the steps: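 In vitro kinase reaction using recombinant GST-tagged MASTL with His-tagged ENSA as substrate; phosphorylated ENSA (pENSA) serves as read-out of MASTL activity. Cell lines named: MCF7 breast cancer and MCF10A.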

Data set [2] has as its target T1, Recombinant GST-TAG-MASTL (Homo sapiens, UniProt Q96GX5).
T1 construct: GST; purchased Thermo Fisher Scientific
T1 sequence (Q96GX5 1-879): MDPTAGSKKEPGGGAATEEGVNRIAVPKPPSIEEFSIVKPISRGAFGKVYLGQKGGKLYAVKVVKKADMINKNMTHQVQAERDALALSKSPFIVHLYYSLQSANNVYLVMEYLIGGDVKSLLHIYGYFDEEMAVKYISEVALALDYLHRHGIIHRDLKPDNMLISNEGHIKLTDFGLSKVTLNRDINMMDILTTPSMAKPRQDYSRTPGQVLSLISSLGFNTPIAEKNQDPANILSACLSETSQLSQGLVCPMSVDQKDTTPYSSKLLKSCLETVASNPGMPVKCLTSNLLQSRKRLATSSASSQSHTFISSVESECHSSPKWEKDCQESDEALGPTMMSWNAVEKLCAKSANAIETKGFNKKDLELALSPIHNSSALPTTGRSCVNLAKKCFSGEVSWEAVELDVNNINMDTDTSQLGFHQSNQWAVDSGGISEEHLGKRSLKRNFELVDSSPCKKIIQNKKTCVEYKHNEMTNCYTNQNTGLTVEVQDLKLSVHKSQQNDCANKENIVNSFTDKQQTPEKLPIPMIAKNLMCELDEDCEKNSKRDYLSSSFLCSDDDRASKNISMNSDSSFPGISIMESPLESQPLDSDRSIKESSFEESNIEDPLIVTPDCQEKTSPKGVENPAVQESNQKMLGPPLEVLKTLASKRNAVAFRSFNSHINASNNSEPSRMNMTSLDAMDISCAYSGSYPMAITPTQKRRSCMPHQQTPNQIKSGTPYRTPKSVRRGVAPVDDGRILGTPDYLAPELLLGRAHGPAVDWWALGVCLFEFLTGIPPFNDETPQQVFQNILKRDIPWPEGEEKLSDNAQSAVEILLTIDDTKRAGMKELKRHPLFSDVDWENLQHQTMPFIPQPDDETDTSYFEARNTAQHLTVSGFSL
As to the kind of experiment: HTRF-based kinase assay (HTRF KinEASE assay kit). The settings on record: for activity at 1 µM: read-out: MASTL activity (%) HTRF (1 µM). In kind it is biochemical. The source says:
Recombinant GST-TAG-MASTL (Thermo Fisher Scientific, MA, USA) was used for HTRF-based kinase assays. The HTRF KinEASE assay kit (CisBio, MA, USA) was used according to the manufacturer's instructions.

Data set [3] can be described thus: in vitro. The settings on record: human, mcf10a cells.
Description: (§1) MCF7 breast cancer cell lines and MCF10A normal breast cancer cell lines were treated with serial dilutions of the compounds of the present invention ranging from 1 µM to 15.63 nM for 72 hours. Cell viability was measured by the WST-8 assay (Cyto XTM cell viability assay kit; LPS solution, Daejeon, Korea) according to the manufacturer's instructions.
In data set [4] the test system is MCF7 breast cancer cell lines. As to the kind of experiment: Cell viability analysis, WST-8 assay, MCF7. The settings on record: for viability at 1.25 µM / IC50 / viability at 1 µM: Homo sapiens, MCF7, 72 h; for viability at 1.25 µM: read-out: Cell viability (%) WST-8, MCF7, footnote a: concentration 1.25 µM, 72 hours; for viability at 1 µM: read-out: Cell viability (%) WST-8, MCF7 (1 µM), compound 1 µM, 72 hours. On the technique in general: Tetrazolium dyes change colour on reduction, which living cells bring about.
Description: as §1

The mark [5] stands for this setting: HTRF, read-out: IC50(nM) MASTL activity.

Molecules are shown by their SMILES. Where two headings read alike, the source gives them in different places.

For the compound `NS(=O)(=O)c1ccc(Nc2nc(Nc3cc(C4CC4)[nH]n3)c3ccccc3n2)cc1` [compound 4g, 4-((4-((5-cyclopropyl-1G-pyrazol-3-yl)amino)quinazolin-2-yl)amino)benzenesulfonamide], in data set [1], the “pENSA (%) Immunofluor ecense (1 µM)” value turned out to be 10.4%. Also, the IC50 in data set [1] worked out at 344 nM; in data set [2] it was 189 nM; in data set [4] (read-out: IC50 Cell viability (MCF7)), 2700 nM. Also, the activity at 10 µM in data set [2] (read-out: MASTL activity (%) HTRF) was determined as 18.6%. For the same compound, the results for the viability at 1.25 µM in data set [3] and in data set [4] were 9.3% and 85.3%, respectively.

On to `CN(C)S(=O)(=O)c1ccc(Nc2nc(Nc3cc(C4CC4)[nH]n3)c3ccccc3n2)cc1` [compound 4j, 4-((4-((5-cyclopropyl-1G-pyrazol-3-yl)amino)quinazolin-2-yl)amino)-M,M-dimethylbenzenesulfonamide], for which the “pENSA (%) Immunofluor ecense (1 µM)” value in data set [1] is listed as 5.2%. Besides, the IC50 was found to be 420 nM in data set [1], 527 nM in data set [2] (setting [5]) and 713 nM in data set [4] (read-out: IC50(nM) Cell viability (MCF7)). Further, in data set [2] (footnote a: concentration 1.25 µM, read-out: MASTL activity (%) HTRF), the activity at 1.25 µM was 27%. Besides, the values for the viability at 1.25 µM in data set [3] and in data set [4] were 21.6% and 22.8%, respectively. Also, in data set [4] (MCF7 versus MCF10A), the “selectivity for breast cancer cells over normal cells in the cell viability assay” value is listed as “selectively inhibit only breast cancer cells”.

With `FC(F)(F)c1cc(Nc2nc(Nc3cc(C4CC4)[nH]n3)c3ccccc3n2)ccc1Cl` [compound 4k, M^2-(4-chloro-3-(trifluoromethyl)phenyl)-M^4-(5-cyclopropyl-1G-pyrazol-3-yl)quinazoline-2,4-diamine], the “pENSA (%) Immunofluor ecense (1 µM)” value in data set [1] is given as 105%. For the same compound, the activity at 10 µM in data set [2] (footnote b: concentration 10 µM, read-out: MASTL activity (%) HTRF) came out at 59.2%. Besides, the figures for the viability at 1.25 µM in data set [3] and in data set [4] were 115% and 80.8%, respectively.

As to `Cc1ccc(-c2nc3ccccc3s2)cc1Nc1nc(Nc2cc(C3CC3)[nH]n2)c2ccccc2n1` [compound 4l, M^2-(5-(benzo[c]thiazol-2-yl)-2-methylphenyl)-M^4-(5-cyclopropyl-1G-pyrazol-3-yl)quinazoline-2,4-diamine], the “pENSA (%) Immunofluor ecense (1 µM)” value in data set [1] was 88.6%. The activity at 1 µM in data set [2] (compound 1 µM) came out at 81.5%. Also, the figures for the viability at 1 µM in data set [3] and in data set [4] were 118% and 100%, respectively.

As to `c1ccc2sc(-c3ccc(Nc4nc(Nc5cc(C6CC6)[nH]n5)c5ccccc5n4)cc3)nc2c1` [compound 4m, M^2-(4-(benzo[c]thiazol-2-yl)phenyl)-M^4-(5-cyclopropyl-1G-pyrazol-3-yl)quinazoline-2,4-diamine], the “pENSA (%) Immunofluor ecense (1 µM)” value in data set [1] is recorded as 88.8%. In addition, the activity at 1 µM in data set [2] (compound 1 µM) was 73%. Also, the viability at 1 µM was 85.8% in data set [3] and 110% in data set [4].

For `COC(=O)c1ccc(Nc2nc(Nc3cc(C4CC4)[nH]n3)c3ccccc3n2)cc1` [compound 4o, Methyl 4-((4-((5-cyclopropyl-1G-pyrazol-3-yl)amino)quinazolin-2-yl)amino)benzoate], in data set [1], the “pENSA (%) Immunofluor ecense (1 µM)” value was determined as 19.2% and the IC50 worked out at 680 nM. Further, the activity at 1 µM in data set [2] (compound 1 µM) worked out at 53.8%. For the same compound, the viability at 1 µM in data set [3] was determined as 79.4%. In addition, the viability at 1 µM in data set [4] is 53.4%.

For the compound `CC(C)(C)OC(=O)c1ccc(Nc2nc(Nc3cc(C4CC4)[nH]n3)c3ccccc3n2)cc1` [compound 4p, sdqs-butyl 4-((4-((5-cyclopropyl-1G-pyrazol-3-yl)amino)quinazolin-2-yl)amino)benzoate], in data set [1], the “pENSA (%) Immunofluor ecense (1 µM)” value was found to be 56.2%. Further, the activity at 1 µM in data set [2] (compound 1 µM) came out at 58%. Besides, the viability at 1 µM turned out to be 86.8% in data set [3] and 100% in data set [4].

As for `CC(C)(C)OC(=O)Cc1ccc(Nc2nc(Nc3cc(C4CC4)[nH]n3)c3ccccc3n2)cc1` [compound 4q, sdqs-butyl 2-(4-((4-((5-cyclopropyl-1G-pyrazol-3-yl)amino)quinazolin-2-yl)amino)phenyl)acetate], the “pENSA (%) Immunofluor ecense (1 µM)” value in data set [1] was 53.6%. The activity at 1 µM in data set [2] (compound 1 µM) amounted to 76.1%. Further, the viability at 1 µM in data set [3] amounted to 98.8%; in data set [4], 107%.

In the case of `O=C(O)c1ccc(Nc2nc(Nc3cc(C4CC4)[nH]n3)c3ccccc3n2)cc1` [compound 4r, 4-((4-((5-cyclopropyl-1G-pyrazol-3-yl)amino)quinazolin-2-yl)amino)benzoic acid], in data set [1], the “pENSA (%) Immunofluor ecense (1 µM)” value is 12% and the IC50 worked out at 988 nM. In addition, the activity at 1 µM in data set [2] was found to be 56.6%. The viability at 1 µM in data set [3] turned out to be 84.2%. The viability at 1 µM in data set [4] was 98.8%.

With `CC(C)(C)OC(=O)N1CCC2(CC1)CCN(c1nc(Nc3cc(C4CC4)[nH]n3)c3ccccc3n1)CC2` [compound 6b, sdqs-butyl 9-(4-((5-cyclopropyl-1G-pyrazol-3-yl)amino)quinazolin-2-yl)-3,9-diazaspiro[5.5]undecane-3-carboxylate], the “pENSA (%) Immunofluor ecense (1 µM)” value in data set [1] is 98.2%. Also, in data set [2] (compound 1 µM), the activity at 1 µM turned out to be 43.5%. Moreover, the viability at 1 µM in data set [3] turned out to be 122%; in data set [4] it was 116%.

For `CC(C)(C)OC(=O)N1CC2(CCN(c3nc(Nc4cc(C5CC5)[nH]n4)c4ccccc4n3)CC2)C1` [compound 6c, sdqs-butyl 7-(4-((5-cyclopropyl-1G-pyrazol-3-yl)amino)quinazolin-2-yl)-2,7-diazaspiro[3.5]nonane-2-carboxylate], in data set [1], the “pENSA (%) Immunofluor ecense (1 µM)” value is given as 90.5%. The IC50 in data set [2] (setting [5]) is 796 nM. For the same compound, the activity at 1 µM in data set [2] (compound 1 µM) is 32.9%. For the same compound, the viability at 1 µM in data set [3] is 129%; in data set [4] it was 109%.

On to `C1=C(c2ccccc2)CCN(c2nc(Nc3cc(C4CC4)[nH]n3)c3ccccc3n2)C1` [compound 6e, M-(5-cyclopropyl-1G-pyrazol-3-yl)-2-(4-phenyl-3,6-dihydropyridin-1(2G)-yl)quinazolin-4-amine], for which the “pENSA (%) Immunofluor ecense (1 µM)” value in data set [1] is 97%. In addition, the IC50 in data set [2] (setting [5]) was found to be 569 nM. Moreover, the activity at 1 µM in data set [2] (compound 1 µM) came out at 43.3%. Besides, the viability at 1 µM in data set [3] is 91.4%; in data set [4], 90.9%.

As for `FC(F)(F)c1ccc(C2=CCN(c3nc(Nc4cc(C5CC5)[nH]n4)c4ccccc4n3)CC2)cc1` [compound 6f, M-(5-cyclopropyl-1G-pyrazol-3-yl)-2-(4-(4-(trifluoromethyl)phenyl)-3,6-dihydropyridin-1(2G)-yl)quinazolin-4-amine], the “pENSA (%) Immunofluor ecense (1 µM)” value in data set [1] stood at 110%. The activity at 1 µM in data set [2] (compound 1 µM) came out at 55.8%. Also, the figures for the viability at 1 µM in data set [3] and in data set [4] were 102% and 91.9%, respectively.

Turning to `FC(F)(F)c1cccc(C2=CCN(c3nc(Nc4cc(C5CC5)[nH]n4)c4ccccc4n3)CC2)c1` [compound 6g, M-(5-cyclopropyl-1G-pyrazol-3-yl)-2-(4-(3-(trifluoromethyl)phenyl)-3,6-dihydropyridin-1(2G)-yl)quinazolin-4-amine], in data set [1], the “pENSA (%) Immunofluor ecense (1 µM)” value is listed as 113%. Moreover, the activity at 1 µM in data set [2] (compound 1 µM) turned out to be 41.4%. For the same compound, the values for the viability at 1 µM in data set [3] and in data set [4] were 104% and 95%, respectively.

In the case of `C1=C(Cc2ccccc2)CCN(c2nc(Nc3cc(C4CC4)[nH]n3)c3ccccc3n2)C1` [compound 6h, 2-(4-benzyl-3,6-dihydropyridin-1(2G)-yl)-M-(5-cyclopropyl-1G-pyrazol-3-yl)quinazolin-4-amine], in data set [1], the “pENSA (%) Immunofluor ecense (1 µM)” value was 93%. Moreover, the IC50 in data set [2] (setting [5]) came to 995 nM. In addition, the activity at 1 µM in data set [2] (compound 1 µM) was determined as 46%. The viability at 1 µM in data set [3] was determined as 59.8%; in data set [4] it was 89.7%.

What is called IC50 is the point on the concentration scale where inhibition reaches its midpoint.
